Experimental data reported in patent US6613765B1, “Use of NK-1 receptor antagonists for treating major depressive disorders” (Merck Sharp & Dohme Limited, priority 1996, dated 2003).

Assays:
human NK-1 receptor = biological target: T1, human NK-1 receptor (Homo sapiens, UniProt P25103); assay: NK-1 receptor binding (125I-Tyr8-substance P, intact CHO cells); details: CHO cells expressing the human NK-1 receptor
T1 construct: expressed in transfected cells; host or cells: CHO (Chinese hamster ovary) cells, intact
Procedure: NK-1 receptor binding assays are performed in intact Chinese hamster ovary (CHO) cells expressing the human NK-1 receptor using a modification of the assay conditions described by Cascieri et al, J. Pharmacol. Exp. Ther., 1992, 42, 458. Typically, the receptor is expressed at a level of 3×10^5 receptors per cell. Cells are grown in monolayer culture, detached from the plate with enzyme-free dissociation solution (Speciality Media Inc.), and washed prior to use in the assay. ^125I-Tyr^8-substance P (0.1 nM, 2000 Ci/mmol; New England Nuclear) is incubated in the presence or absence of test compounds (dissolved in 5 μl dimethylsulphoxide, DMSO) with 5×10^4 CHO cells. Ligand binding is performed in 0.25 ml of 50 mM Tris-HCl, pH 7.5, containing 5 mM MnCl2, 150 mM NaCl, 0.02% bovine serum albumin (Sigma), 50 μg/ml chymostatin (Peninsula), 0.1 nM phenylmethylsulphonyl fluoride, 2 μg/ml pepstatin, 2 μg/ml leupeptin and 2.8 μg/ml furoyl saccharine. The incubation proceeds at room temperature until equilibrium is achieved (>40 minutes) and the receptor-ligand complex is harvested by filtration over GF/C filters pre-soaked in 0.1% polyethylenimine using a Tomtek 96-well harvester. Non-specific binding is determined using excess substance P (1 μM and represents <10% of total binding.

[1] = test system: foot tapping in gerbils induced by central injection of an NK1 agonist; assay: Gerbil foot-tapping induced by central infusion of NK-1 receptor agonist GR73632; type: in vivo, Mongolian gerbils; details: i.v.
From the text: ASSAY 2: Gerbil Foot-tapping
CNS-penetrant NK-1 receptor antagonists for use in the present invention can be identified by their ability to inhibit foot tapping in gerbils induced by anxiogenic agents (such as pentagastrin) or central infusion of NK-1 receptor agonists such as GR73632, or caused by aversive stimulation such as foot shock or single housing, based on the method of Rupniak & Williams, Eur. J. Pharmacol., 1994, 265, 179.
Male or female Mongolian gerbils (35-70 g) are anaesthetised by inhalation of an isoflurane/oxygen mixture to permit exposure of the jugular vein in order to permit administration of test compounds or vehicle in an injection volume of 5 ml/kg i.v. Alternatively, test compounds may be administered orally or by subcutaneous or intraperitoneal routes. A skin incision is then made in the midline of the scalp to expose the skull. […]

[2] = test system: separation-induced vocalisations by guinea-pig pups; assay: Separation-induced vocalisation in guinea-pig pups; type: in vivo; details: p.o.
Procedure: ASSAY 4: Separation-induced Vocalisation
On test days each pup receives an oral dose or an s.c. or i.p. injection of test compound or vehicle and is then immediately returned to the home cage with its mother and siblings for 30 to 60 minutes (or for up to 4 hours following an oral dose, dependent upon the oral pharmacokinetics of the test compound) before social isolation for 15 minutes as described above. […] Between 6 and 8 animals receive each test compound at each dose tested.

T1 sequence (P25103 whole entry): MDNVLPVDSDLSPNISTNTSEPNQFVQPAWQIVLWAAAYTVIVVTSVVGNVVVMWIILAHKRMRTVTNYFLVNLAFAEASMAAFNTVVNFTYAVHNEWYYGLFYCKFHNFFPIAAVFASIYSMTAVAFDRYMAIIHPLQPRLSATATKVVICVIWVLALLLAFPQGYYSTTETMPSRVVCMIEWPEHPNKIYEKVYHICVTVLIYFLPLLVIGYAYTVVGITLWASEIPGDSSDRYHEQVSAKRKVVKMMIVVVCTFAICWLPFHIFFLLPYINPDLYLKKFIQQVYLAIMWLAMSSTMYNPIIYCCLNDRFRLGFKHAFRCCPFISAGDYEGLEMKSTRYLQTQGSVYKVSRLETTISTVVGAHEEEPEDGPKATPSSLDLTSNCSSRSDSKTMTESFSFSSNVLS

SMILES: Cl.FC(F)(F)Oc1ccc(OC2CC2)c([C@H]2CO[C@]3(CCCN[C@H]3c3ccccc3)C2)c1
- melting point: 214 to 216 °C

SMILES: OC[C@@H](O[C@H]1OCCN(Cc2nc[nH]n2)[C@H]1c1ccc(F)cc1)c1cc(C(F)(F)F)cc(C(F)(F)F)c1 [2-(R)-(1-(S)-(3,5-bis(trifluoromethyl)phenyl)-2-hydroxyethoxy)-3-(S)-(4-fluorophenyl)-4-(1,2,4-triazol-3-yl)methylmorpholine]
- IC50 (human NK-1 receptor): 0.12 nM
- gerbil foot-tapping (5 mins.): ID50 ([1]; 5 mins.): ID50 = 0.38 mg/kg i.v.
- gerbil foot-tapping (24 hrs.): ID60 ([1]; 24 hrs. prior to agonist challenge): ID60 = 2.2 mg/kg i.v.
- guinea-pig vocalisation (4 hr. pre-treatment): ID50 [2]: ID50 = 0.91 mg/kg p.o.
